Where two headings read alike, the source gives them in different places.
Key:
Assay in all cases: Kinase panel
Assay type in all cases: biochemical
[1] = target: CAMKK2 (Homo sapiens, UniProt Q96RR4); conditions: CAMKK2, 1 µM; read-out: residual enzyme activity
How it was run: (§1)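 In this biochemical panel, each kinase was exposed to test compound at 1 µM and its leftover catalytic activity expressed as residual activity. Selection required at least 60% inhibition.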

[2] = target: PKCTHETA (Homo sapiens, UniProt Q04759); conditions: read-out: residual enzyme activity
How it was run: as §1

[3] = target: SRPK1 (Homo sapiens, UniProt Q96SB4); conditions: SRPK1, 1 µM; read-out: residual enzyme activity
How it was run: as §1

[4] = target: TNK1 (Homo sapiens, UniProt Q13470); conditions: TNK1, 1 µM; read-out: residual enzyme activity
How it was run: as §1

[5] = target: PKACB (Homo sapiens, UniProt P22694); conditions: read-out: residual enzyme activity
How it was run: as §1

[6] = target: HIPK1 (Homo sapiens, UniProt Q86Z02); conditions: HIPK1, 1 µM; read-out: residual enzyme activity
How it was run: as §1

[7] = target: MKK6 (Homo sapiens, UniProt P52564); conditions: MKK6, 1 µM; read-out: residual enzyme activity
Sequence of MKK6 (P52564 whole entry, species assumed): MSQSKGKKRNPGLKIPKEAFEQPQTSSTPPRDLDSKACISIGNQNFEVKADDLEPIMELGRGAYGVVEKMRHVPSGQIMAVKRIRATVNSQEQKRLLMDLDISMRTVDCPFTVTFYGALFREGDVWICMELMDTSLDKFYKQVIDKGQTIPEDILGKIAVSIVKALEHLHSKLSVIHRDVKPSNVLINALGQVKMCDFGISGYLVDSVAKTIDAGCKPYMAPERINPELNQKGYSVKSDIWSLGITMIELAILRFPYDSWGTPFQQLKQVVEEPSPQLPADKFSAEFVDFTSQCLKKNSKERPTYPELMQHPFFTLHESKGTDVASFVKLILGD
How it was run: as §1

[8] = target: NEK2 (Homo sapiens, UniProt P51955); conditions: NEK2, 1 µM; read-out: residual enzyme activity
How it was run: as §1

[9] = target: ALK5/TGFBR1 (Homo sapiens, UniProt P36897); conditions: ALK5/TGFBR1, 1 µM; read-out: residual enzyme activity
How it was run: as §1

[10] = target: SBK1 (Homo sapiens, UniProt Q52WX2); conditions: SBK1, 1 µM; read-out: residual enzyme activity
How it was run: as §1

[11] = target: AURORA C (Homo sapiens, UniProt Q9UQB9); conditions: read-out: residual enzyme activity
Sequence of AURORA C (Q9UQB9 whole entry): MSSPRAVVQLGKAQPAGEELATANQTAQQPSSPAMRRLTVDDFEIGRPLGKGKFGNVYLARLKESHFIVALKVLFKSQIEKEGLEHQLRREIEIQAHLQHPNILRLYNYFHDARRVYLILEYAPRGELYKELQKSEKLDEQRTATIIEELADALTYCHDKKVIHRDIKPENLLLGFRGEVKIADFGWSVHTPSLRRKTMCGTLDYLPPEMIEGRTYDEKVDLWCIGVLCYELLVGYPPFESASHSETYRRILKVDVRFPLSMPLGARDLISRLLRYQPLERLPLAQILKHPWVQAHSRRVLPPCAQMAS
How it was run: as §1

[12] = target: IR (Homo sapiens, UniProt P06213); conditions: read-out: residual enzyme activity
How it was run: as §1

[13] = target: CDK9/CYCLIN T1 (Homo sapiens, UniProt P50750); conditions: CDK9/cyclin T1, 1 µM; read-out: residual enzyme activity
Sequence of CDK9/CYCLIN T1 (P50750 whole entry, species assumed): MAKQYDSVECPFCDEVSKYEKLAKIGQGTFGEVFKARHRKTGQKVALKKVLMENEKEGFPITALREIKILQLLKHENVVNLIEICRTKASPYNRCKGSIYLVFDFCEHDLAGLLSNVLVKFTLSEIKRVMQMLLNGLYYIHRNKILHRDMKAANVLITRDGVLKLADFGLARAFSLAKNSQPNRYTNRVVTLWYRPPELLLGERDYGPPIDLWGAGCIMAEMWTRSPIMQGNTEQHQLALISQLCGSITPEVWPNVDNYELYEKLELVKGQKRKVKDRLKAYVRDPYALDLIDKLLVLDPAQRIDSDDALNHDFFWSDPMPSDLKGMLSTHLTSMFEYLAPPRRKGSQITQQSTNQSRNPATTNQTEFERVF
Sequence of CDK9/CYCLIN T1 (O60563 whole entry partner, species assumed): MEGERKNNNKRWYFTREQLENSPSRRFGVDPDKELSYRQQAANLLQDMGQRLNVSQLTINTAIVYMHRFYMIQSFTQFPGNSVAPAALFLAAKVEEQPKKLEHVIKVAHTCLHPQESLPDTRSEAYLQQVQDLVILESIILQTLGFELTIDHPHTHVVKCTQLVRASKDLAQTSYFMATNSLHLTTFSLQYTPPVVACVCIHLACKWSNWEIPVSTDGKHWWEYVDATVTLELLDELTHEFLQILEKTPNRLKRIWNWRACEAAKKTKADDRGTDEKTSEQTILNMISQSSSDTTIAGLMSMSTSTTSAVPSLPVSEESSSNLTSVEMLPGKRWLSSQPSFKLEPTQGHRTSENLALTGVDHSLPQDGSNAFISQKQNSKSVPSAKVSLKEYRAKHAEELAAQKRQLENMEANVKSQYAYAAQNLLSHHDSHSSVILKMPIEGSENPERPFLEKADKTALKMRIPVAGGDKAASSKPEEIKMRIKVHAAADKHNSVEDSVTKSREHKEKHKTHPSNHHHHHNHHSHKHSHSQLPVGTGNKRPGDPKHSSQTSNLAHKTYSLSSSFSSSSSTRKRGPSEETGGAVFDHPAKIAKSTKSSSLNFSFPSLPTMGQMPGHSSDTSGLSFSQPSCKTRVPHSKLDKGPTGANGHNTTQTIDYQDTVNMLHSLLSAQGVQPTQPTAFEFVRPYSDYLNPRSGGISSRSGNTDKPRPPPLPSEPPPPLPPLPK
How it was run: as §1

[14] = target: ALK6/BMPR1B (Homo sapiens, UniProt O00238); conditions: read-out: residual enzyme activity
Sequence of ALK6/BMPR1B (O00238 14-502): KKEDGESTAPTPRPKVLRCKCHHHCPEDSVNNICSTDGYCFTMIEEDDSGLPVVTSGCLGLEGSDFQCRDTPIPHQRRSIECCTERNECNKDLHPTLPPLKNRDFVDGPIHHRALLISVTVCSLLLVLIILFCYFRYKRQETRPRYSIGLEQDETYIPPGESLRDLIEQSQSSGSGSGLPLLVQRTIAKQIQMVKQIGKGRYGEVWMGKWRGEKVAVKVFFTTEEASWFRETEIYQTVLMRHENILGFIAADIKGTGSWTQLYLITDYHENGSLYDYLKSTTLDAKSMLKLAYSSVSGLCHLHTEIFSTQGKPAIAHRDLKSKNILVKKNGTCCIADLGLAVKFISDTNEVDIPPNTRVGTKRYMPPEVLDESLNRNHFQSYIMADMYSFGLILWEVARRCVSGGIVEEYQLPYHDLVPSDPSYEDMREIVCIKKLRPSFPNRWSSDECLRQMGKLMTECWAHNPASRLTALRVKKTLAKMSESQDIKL
How it was run: as §1

[15] = target: MKK7 (Homo sapiens, UniProt O14733); conditions: MKK7, 1 µM; read-out: residual enzyme activity
How it was run: as §1

[16] = target: SLK/STK2 (Homo sapiens, UniProt Q9H2G2); conditions: SLK/STK2, 1 µM; read-out: residual enzyme activity
How it was run: as §1

[17] = target: VRK1 (Homo sapiens, UniProt Q99986); conditions: VRK1, 1 µM; read-out: residual enzyme activity
How it was run: as §1

[18] = target: HCK (Homo sapiens, UniProt P08631); conditions: read-out: residual enzyme activity
How it was run: as §1

[19] = target: PKCNU/PRKD3 (Homo sapiens, UniProt O94806); conditions: PKCnu/PRKD3, 1 µM; read-out: residual enzyme activity
How it was run: as §1

[20] = target: EPHA6 (Homo sapiens, UniProt Q9UF33); conditions: EPHA6, 1 µM; read-out: residual enzyme activity
How it was run: as §1

[21] = target: CDK4/CYCLIN D1 (Homo sapiens, UniProt P11802); conditions: CDK4/cyclin D1, 1 µM; read-out: residual enzyme activity
How it was run: as §1

[22] = target: CAMKK1 (Homo sapiens, UniProt Q8N5S9); conditions: CAMKK1, 1 µM; read-out: residual enzyme activity
How it was run: as §1

[23] = target: RIPK5 (Homo sapiens, UniProt Q6XUX3); conditions: RIPK5, 1 µM; read-out: residual enzyme activity
How it was run: as §1

[24] = target: CDK2/CYCLIN E2 (Homo sapiens, UniProt P24941); conditions: CDK2/cyclin E2, 1 µM; read-out: residual enzyme activity
How it was run: as §1

[25] = target: VRK2 (Homo sapiens, UniProt Q86Y07); conditions: VRK2, 1 µM; read-out: residual enzyme activity
How it was run: as §1

[26] = target: CDK14/CYCLIN Y (PFTK1) (Homo sapiens, UniProt O94921); conditions: read-out: residual enzyme activity
How it was run: as §1

[27] = target: MELK (Homo sapiens, UniProt Q14680); conditions: read-out: residual enzyme activity
Sequence of MELK (Q14680 whole entry, species assumed): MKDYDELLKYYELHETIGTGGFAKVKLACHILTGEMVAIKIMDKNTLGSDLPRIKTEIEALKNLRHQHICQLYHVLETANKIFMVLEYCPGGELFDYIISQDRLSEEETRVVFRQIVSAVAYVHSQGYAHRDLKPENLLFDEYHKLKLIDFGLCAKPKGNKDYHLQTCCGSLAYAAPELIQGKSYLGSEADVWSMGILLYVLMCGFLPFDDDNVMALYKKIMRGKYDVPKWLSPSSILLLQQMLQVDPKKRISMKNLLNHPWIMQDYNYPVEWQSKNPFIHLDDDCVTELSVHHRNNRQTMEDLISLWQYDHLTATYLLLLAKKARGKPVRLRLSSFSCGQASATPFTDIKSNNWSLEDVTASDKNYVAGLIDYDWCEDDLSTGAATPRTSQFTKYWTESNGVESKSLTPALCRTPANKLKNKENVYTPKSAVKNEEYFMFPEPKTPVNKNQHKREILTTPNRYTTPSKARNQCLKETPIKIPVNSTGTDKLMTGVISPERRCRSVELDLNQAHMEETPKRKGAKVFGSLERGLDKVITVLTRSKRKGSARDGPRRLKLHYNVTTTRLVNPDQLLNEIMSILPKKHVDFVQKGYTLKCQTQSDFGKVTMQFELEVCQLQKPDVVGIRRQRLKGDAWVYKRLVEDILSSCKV
How it was run: as §1

[28] = target: PKN1/PRK1 (Homo sapiens, UniProt Q16512); conditions: PKN1/PRK1, 1 µM; read-out: residual enzyme activity
How it was run: as §1

[29] = target: CAMK2G (Homo sapiens, UniProt Q13555); conditions: read-out: residual enzyme activity
How it was run: as §1

[30] = target: TXK (Homo sapiens, UniProt P42681); conditions: read-out: residual enzyme activity
How it was run: as §1

[31] = target: NEK4 (Homo sapiens, UniProt P51957); conditions: NEK4, 1 µM; read-out: residual enzyme activity
How it was run: as §1

[32] = target: C-KIT (Homo sapiens, UniProt P10721); conditions: read-out: residual enzyme activity
Sequence of C-KIT (P10721 26-976): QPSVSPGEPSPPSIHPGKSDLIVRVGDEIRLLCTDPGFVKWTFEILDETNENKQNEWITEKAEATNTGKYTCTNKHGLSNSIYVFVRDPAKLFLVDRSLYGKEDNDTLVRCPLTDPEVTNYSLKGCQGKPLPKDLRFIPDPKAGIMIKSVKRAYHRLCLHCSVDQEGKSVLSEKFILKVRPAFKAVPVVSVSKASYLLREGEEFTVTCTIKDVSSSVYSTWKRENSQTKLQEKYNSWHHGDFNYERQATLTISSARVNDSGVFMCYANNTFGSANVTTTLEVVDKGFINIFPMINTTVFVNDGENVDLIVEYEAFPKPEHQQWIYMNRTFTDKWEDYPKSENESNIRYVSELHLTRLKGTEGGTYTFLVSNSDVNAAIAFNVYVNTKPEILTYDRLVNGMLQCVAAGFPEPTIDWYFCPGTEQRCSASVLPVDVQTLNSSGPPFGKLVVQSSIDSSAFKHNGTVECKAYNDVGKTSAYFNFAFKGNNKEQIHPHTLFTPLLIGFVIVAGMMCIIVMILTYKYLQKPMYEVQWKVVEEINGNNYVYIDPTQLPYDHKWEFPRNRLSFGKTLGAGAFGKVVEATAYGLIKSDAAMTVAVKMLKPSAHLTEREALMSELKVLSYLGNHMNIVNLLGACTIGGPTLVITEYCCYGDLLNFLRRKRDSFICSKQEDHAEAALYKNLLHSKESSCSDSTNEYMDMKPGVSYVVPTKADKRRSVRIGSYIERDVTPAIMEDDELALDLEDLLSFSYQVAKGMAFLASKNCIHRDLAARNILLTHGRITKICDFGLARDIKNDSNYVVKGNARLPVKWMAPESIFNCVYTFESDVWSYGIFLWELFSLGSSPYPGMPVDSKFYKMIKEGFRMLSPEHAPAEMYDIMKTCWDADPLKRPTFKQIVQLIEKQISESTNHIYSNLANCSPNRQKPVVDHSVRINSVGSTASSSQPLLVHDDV
How it was run: as §1

[33] = target: FGR (Homo sapiens, UniProt P09769); conditions: read-out: residual enzyme activity
Sequence of FGR (P09769 whole entry, species assumed): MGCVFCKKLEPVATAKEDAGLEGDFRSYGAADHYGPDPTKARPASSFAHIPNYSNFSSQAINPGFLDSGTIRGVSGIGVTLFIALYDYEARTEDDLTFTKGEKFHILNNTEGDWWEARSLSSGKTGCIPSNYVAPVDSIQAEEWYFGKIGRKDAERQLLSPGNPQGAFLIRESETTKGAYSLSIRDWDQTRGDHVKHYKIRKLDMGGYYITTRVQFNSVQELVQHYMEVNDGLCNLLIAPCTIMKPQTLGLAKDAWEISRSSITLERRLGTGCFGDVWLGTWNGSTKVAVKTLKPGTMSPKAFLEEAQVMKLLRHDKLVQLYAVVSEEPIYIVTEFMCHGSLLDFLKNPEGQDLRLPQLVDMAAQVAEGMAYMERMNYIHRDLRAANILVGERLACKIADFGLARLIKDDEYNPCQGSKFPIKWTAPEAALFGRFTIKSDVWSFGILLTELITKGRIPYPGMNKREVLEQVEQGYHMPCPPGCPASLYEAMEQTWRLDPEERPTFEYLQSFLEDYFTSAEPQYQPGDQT
How it was run: as §1

[34] = target: BLK (Homo sapiens, UniProt P51451); conditions: read-out: residual enzyme activity
How it was run: as §1

Sequence of CAMKK2 (Q96RR4 whole entry, species assumed): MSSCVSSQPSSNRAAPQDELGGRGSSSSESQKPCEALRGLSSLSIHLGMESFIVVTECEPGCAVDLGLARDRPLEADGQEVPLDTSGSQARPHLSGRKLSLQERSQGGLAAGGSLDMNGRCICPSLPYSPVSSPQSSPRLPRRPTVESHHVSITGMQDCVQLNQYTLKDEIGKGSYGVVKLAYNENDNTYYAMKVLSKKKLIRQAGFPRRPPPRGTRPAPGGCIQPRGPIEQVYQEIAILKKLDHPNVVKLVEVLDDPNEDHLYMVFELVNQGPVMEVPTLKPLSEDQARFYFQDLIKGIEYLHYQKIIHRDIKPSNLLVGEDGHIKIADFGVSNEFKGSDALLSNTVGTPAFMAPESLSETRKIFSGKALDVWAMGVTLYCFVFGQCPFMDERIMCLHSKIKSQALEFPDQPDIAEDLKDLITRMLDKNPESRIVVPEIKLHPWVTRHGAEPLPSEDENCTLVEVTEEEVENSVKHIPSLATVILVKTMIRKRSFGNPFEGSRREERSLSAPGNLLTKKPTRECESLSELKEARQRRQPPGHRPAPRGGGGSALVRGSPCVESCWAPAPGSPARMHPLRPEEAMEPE

Structure (SMILES)	remaining activity at 1 µM [1] [%]	remaining activity at 1 µM [2] [%]	remaining activity at 1 µM [3] [%]	remaining activity at 1 µM [4] [%]	remaining activity at 1 µM [5] [%]	remaining activity at 1 µM [6] [%]	remaining activity at 1 µM [7] [%]	remaining activity at 1 µM [8] [%]	remaining activity at 1 µM [9] [%]	remaining activity at 1 µM [10] [%]	remaining activity at 1 µM [11] [%]	remaining activity at 1 µM [12] [%]	remaining activity at 1 µM [13] [%]	remaining activity at 1 µM [14] [%]	remaining activity at 1 µM [15] [%]	remaining activity at 1 µM [16] [%]	remaining activity at 1 µM [17] [%]	remaining activity at 1 µM [18] [%]	remaining activity at 1 µM [19] [%]	remaining activity at 1 µM [20] [%]	further results
Cc1cn(-c2cc(C(=O)Nc3ccc(C)c(N4Cc5cnc(NC6CC6)nc5C5(CC5)C4=O)c3)cc(C(F)(F)F)c2)cn1 [Compound 8, N-(3-(2'-(cyclopropylamino)-7'-oxo-5'H-spiro[cyclopropane-1,8'-pyrido[4,3-d]pyrimidine]-6'(7'H)-yl)-4-methylphenyl)-3-(4-methyl-1H-imidazol-1-yl)-5-(trifluoromethyl)benzamide]	> 40	> 40	> 40	≤ 40	> 40	> 40	> 40	> 40	> 40	> 40	> 40	> 40	> 40	> 40	> 40	≤ 40	> 40	≤ 40	> 40	≤ 40	remaining activity at 1 µM [21]: > 40%; remaining activity at 1 µM [22]: > 40%; remaining activity at 1 µM [23]: > 40%; remaining activity at 1 µM [24]: > 40%; remaining activity at 1 µM [25]: > 40%; remaining activity at 1 µM [26]: > 40%; remaining activity at 1 µM [27]: > 40%; remaining activity at 1 µM [28]: > 40%; remaining activity at 1 µM ([29]; CAMK2G): > 40%; remaining activity at 1 µM [30]: ≤ 40%; remaining activity at 1 µM [31]: ≤ 40%; remaining activity at 1 µM ([32]; C-KIT): ≤ 40%; remaining activity at 1 µM [33]: ≤ 40%; remaining activity at 1 µM [34]: ≤ 40%
Cc1ccc(Nc2ncc3c(n2)C2(CC2)C(=O)N(c2cc(NC(=O)c4cccc(C(F)(F)F)c4)ccc2C)C3)cn1 [Compound 51, N-(4-methyl-3-(2'-((6-methylpyridin-3-yl)amino)-7'-oxo-5'H-spiro[cyclopropane-1,8'-pyrido[4,3-d]pyrimidine]-6'(7'H)-yl)phenyl)-3-(trifluoromethyl)benzamide]	> 40	> 40	> 40	≤ 40	> 40	> 40	> 40	> 40	> 40	> 40	> 40	> 40	> 40	> 40	> 40	≤ 40	> 40	≤ 40	> 40	≤ 40	remaining activity at 1 µM [21]: > 40%; remaining activity at 1 µM [22]: > 40%; remaining activity at 1 µM [23]: > 40%; remaining activity at 1 µM [24]: > 40%; remaining activity at 1 µM [25]: > 40%; remaining activity at 1 µM [26]: > 40%; remaining activity at 1 µM [27]: > 40%; remaining activity at 1 µM [28]: > 40%; remaining activity at 1 µM ([29]; CAMK2g): > 40%; remaining activity at 1 µM [30]: ≤ 40%; remaining activity at 1 µM [31]: ≤ 40%; remaining activity at 1 µM ([32]; c-Kit): ≤ 40%; remaining activity at 1 µM [33]: ≤ 40%; remaining activity at 1 µM [34]: ≤ 40%

— patent publication EP4722212A1, “NOVEL COMPOUND FOR INHIBITING PROTEIN KINASES AND PHARMACEUTICAL COMPOSITION COMPRISING SAME” (Magicbullettherapeutics Co., Ltd., priority 2023, dated 2024)
